Data reported in PubChem BioAssay AID2060513 (Molecular Pharmacology Branch, DTP, NCI, 2025).

Test system: 299254-011-R-J1-PDC complex spheroids viability
Assay: Anticancer human tumor 299254-011-R-J1-PDC patient-derived melanoma cell line growth inhibition [GQUAD]
Settings: for IC50: curve of first compound; for viability, T/C: stronger effect = lower value
In short: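 Multi-cell-type spheroids of tumor cells with HUVEC and mesenchymal stem cells, treated with drug combinations. Concentrations descend in half-log steps from near clinical Cmax, or from 10 microM where Cmax is unknown; viability read-out.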

[1] = second compound 0.0316 µM, first compound 0.0316 µM
[2] = second compound 0.0316 µM, first compound 0.1 µM
[3] = second compound 0.0316 µM, first compound 0.316 µM
[4] = second compound 0.0316 µM, first compound 1 µM
[5] = second compound 0.0316 µM, first compound 3.16 µM
[6] = second compound 0.0316 µM, first compound 10 µM
[7] = second compound 0.1 µM, first compound 0.0316 µM
[8] = second compound 0.1 µM, first compound 0.1 µM
[9] = second compound 0.1 µM, first compound 0.316 µM
[10] = second compound 0.1 µM, first compound 1 µM
[11] = second compound 0.1 µM, first compound 3.16 µM
[12] = second compound 0.1 µM, first compound 10 µM
[13] = second compound 0.316 µM, first compound 0.0316 µM
[14] = second compound 0.316 µM, first compound 0.1 µM
[15] = second compound 0.316 µM, first compound 0.316 µM
[16] = second compound 0.316 µM, first compound 1 µM
[17] = second compound 0.316 µM, first compound 3.16 µM
[18] = second compound 0.316 µM, first compound 10 µM
[19] = second compound 1 µM, first compound 0.0316 µM
[20] = second compound 1 µM, first compound 0.1 µM
[21] = second compound 1 µM, first compound 0.316 µM
[22] = second compound 1 µM, first compound 1 µM
[23] = second compound 1 µM, first compound 3.16 µM
[24] = second compound 1 µM, first compound 10 µM
[25] = second compound 3.16 µM, first compound 0.0316 µM
[26] = second compound 3.16 µM, first compound 0.1 µM
[27] = second compound 3.16 µM, first compound 0.316 µM
[28] = second compound 3.16 µM, first compound 1 µM
[29] = second compound 3.16 µM, first compound 3.16 µM
[30] = second compound 3.16 µM, first compound 10 µM
[31] = second compound 10 µM, first compound 0.0316 µM
[32] = second compound 10 µM, first compound 0.1 µM
[33] = second compound 10 µM, first compound 0.316 µM
[34] = second compound 10 µM, first compound 1 µM
[35] = second compound 10 µM, first compound 3.16 µM
[36] = second compound 10 µM, first compound 10 µM
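Also: spheroids exposed to the agents for seven days before readout.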
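For viability, T/C in this document: percent viability relative to DMSO vehicle control wells = 100%.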

`CC(=O)O[C@H]1C(=O)[C@@]2(C)[C@H]([C@H](OC(=O)c3ccccc3)[C@]3(O)C[C@H](OC(=O)[C@H](O)[C@@H](NC(=O)c4ccccc4)c4ccccc4)C(C)=C1C3(C)C)[C@]1(OC(C)=O)CO[C@@H]1C[C@@H]2O` + Cc1[nH]c2ccc(F)cc2c1-c1nc2c3cccnc3c3ncccc3c2[nH]1 gave an IC50 (second compound 0.0316 µM) of 448 nM, an IC50 (second compound 0.1 µM) of 274 nM and an IC50 (second compound 0.316 µM) of 445 nM. For the same compound, the IC50 (second compound 1 µM) was 506 nM, the IC50 (second compound 3.16 µM) was 531 nM and the IC50 (second compound 10 µM) was 405 nM. For the same compound, the viability, T/C [1] was 90.7%, the viability, T/C [2] was 82% and the viability, T/C [3] was 58.2%. It also gave a viability, T/C [4] of 31.2%, a viability, T/C [5] of 18% and a viability, T/C [6] of 15.5%. For the same compound, the viability, T/C [7] was 86.8%, the viability, T/C [8] was 94.6% and the viability, T/C [9] was 44.2%. It also gave a viability, T/C [10] of 35.9%, a viability, T/C [11] of 20.7% and a viability, T/C [12] of 13.9%. The viability, T/C [13] was 104%, the viability, T/C [14] was 86.1% and the viability, T/C [15] was 57.2%. The viability, T/C [16] was 33.4%, the viability, T/C [17] was 19.2% and the viability, T/C [18] was 17.3%. The viability, T/C [19] was 89.6%, the viability, T/C [20] was 92.6% and the viability, T/C [21] was 50.1%. It also gave a viability, T/C [22] of 43.1%, a viability, T/C [23] of 21.2% and a viability, T/C [24] of 17.4%. For the same compound, the viability, T/C [25] was 83.3%, the viability, T/C [26] was 84.2% and the viability, T/C [27] was 58.2%. The viability, T/C [28] was 38.7%, the viability, T/C [29] was 22.8% and the viability, T/C [30] was 21.6%. It also gave a viability, T/C [31] of 87.6%, a viability, T/C [32] of 84.5% and a viability, T/C [33] of 48.3%. It also gave a viability, T/C [34] of 40.3%, a viability, T/C [35] of 23.7% and a viability, T/C [36] of 22.8%.
`CC(=O)O[C@H]1C(=O)[C@@]2(C)[C@H]([C@H](OC(=O)c3ccccc3)[C@]3(O)C[C@H](OC(=O)[C@H](O)[C@@H](NC(=O)c4ccccc4)c4ccccc4)C(C)=C1C3(C)C)[C@]1(OC(C)=O)CO[C@@H]1C[C@@H]2O` + CN(C)c1ccc(Nc2c3ccc(NC(=O)CCN4CCCC4)cc3nc3cc(NC(=O)CCN4CCCC4)ccc23)cc1 showed an IC50 (second compound 0.0316 µM) of 461 nM, an IC50 (second compound 0.1 µM) of 364 nM and an IC50 (second compound 0.316 µM) of 271 nM. For the same compound, the IC50 (second compound 1 µM) was 316 nM, the IC50 (second compound 3.16 µM) was 489 nM and the IC50 (second compound 10 µM) was 524 nM. The viability, T/C [1] was 73.9%, the viability, T/C [2] was 84.6% and the viability, T/C [3] was 60.9%. For the same compound, the viability, T/C [4] was 26.3%, the viability, T/C [5] was 19% and the viability, T/C [6] was 17.5%. It also gave a viability, T/C [7] of 83.8%, a viability, T/C [8] of 87.4% and a viability, T/C [9] of 51.9%. It also gave a viability, T/C [10] of 23.7%, a viability, T/C [11] of 14.5% and a viability, T/C [12] of 11.2%. For the same compound, the viability, T/C [13] was 81.5%, the viability, T/C [14] was 96% and the viability, T/C [15] was 44%. It also gave a viability, T/C [16] of 37.1%, a viability, T/C [17] of 22.6% and a viability, T/C [18] of 16.4%. For the same compound, the viability, T/C [19] was 93.8%, the viability, T/C [20] was 78% and the viability, T/C [21] was 49.8%. The viability, T/C [22] was 28.6%, the viability, T/C [23] was 19.1% and the viability, T/C [24] was 17.7%. It also gave a viability, T/C [25] of 89.1%, a viability, T/C [26] of 83.8% and a viability, T/C [27] of 60.6%. The viability, T/C [28] was 32.2%, the viability, T/C [29] was 19.1% and the viability, T/C [30] was 16.4%. It also gave a viability, T/C [31] of 83.3%, a viability, T/C [32] of 84.3% and a viability, T/C [33] of 62.7%. The viability, T/C [34] was 33%, the viability, T/C [35] was 17.4% and the viability, T/C [36] was 15.1%.
